Measured values: patent publication US20250122148A1, “HIGH-SELECTIVITY KCNQ4 POTASSIUM CHANNEL AGONIST, PREPARATION METHOD THEREFOR AND USE THEREOF” (SHANGHAI INSTITUTE OF MATERIA MEDICA, CHINESE ACADEMY OF …, priority 2022, published 2025)

Legend:
[1] = target: T1, human KCNQ2 (Homo sapiens, UniProt O43526); assay: Whole-cell voltage clamp of KCNQ2 channel current in transfected CHO-K1 cells; type: cell-based; parameters: key to KCNQ2 (IDrug/IControl 100 nM): IDrug/IControl current amplitude ratio at -10 mV; conditions: for KCNQ2 (IDrug/IControl 100 nM): activation efficacy, 100 nM compound, -10 mV test pulse, CHO-K1 cells, mean ± SEM
T1 construct: host or cells: CHO-K1 (Chinese hamster ovary), transient transfection with Lipofectamine 2000, co-transfected with GFP
Procedure: (§1) The cell line used in the electrophysiological experiments was the Chinese hamster ovary cell line (CHO-K1); KCNQ cDNA was transformed into E. coli, expressed in E. coli, and then confirmed by plasmid extraction and sequencing.
(§2) CHO-K1 cells (Cell Bank of Chinese Academy of Sciences), medium formula: 50/50 DMEM/F-12 (Gibco), supplemented with 10% fetal bovine serum (FBS) (Gibco, Australia) and 2 mM L-glutamine (Invitrogen). Transfection and expression of KCNQ channels: 24 hours before transfection, cells were digested with trypsin (Sigma, China) and spread in a 6-well plate. Lipofectamine2000™ reagent (Invitrogen) was used for transfection, and the experiment was carried out according to the procedures provided. Twenty-four hours after transfection, cells were digested and seeded onto poly-L-lysine (Sigma)-soaked slides. After co-transfected with GFP (green fluorescent protein), the transfected cells were determined under a fluorescence microscope (Olympus). The human KCNQ2 plasmid (NCBI: NM_172107.4) and human KCNQ4 plasmid (NCBI: NM_004700.4) used were synthesized by Beijing Genomics Institute and constructed in the pcDNA3.1(+) vector plasmid. KCNQ2 and KCNQ4 plasmids were confirmed by plasmid extraction and sequencing after transformation into E. coli DH5α.
(§3) Whole-cell voltage clamp experiments were carried out at room temperature (23˜25° C.), where Axopatch-700B amplifier (Molecular Devices, Sunnyvale, CA) and Digidata 1440A (Molecular Devices) as digital-to-analog converter were used, pClamp 10.0 software (Molecular Devices, Sunnyvale, CA) was used for signal acquisition, the signal was filtered at 2 kHz, the sampling frequency was 10 kHz. Series resistance compensation was used and set to 60%. Pipettes were pulled from Borosilicate glass capillaries (World Precision Instruments, Sarasota, FL), and the resistance of the pipettes filled with an intracellular fluid was 3-5 MΩ. The perfusion drug delivery system was BPS-8 (ALA Scientific Instruments, Westburg, NY) with a speed of approximately 1 mL/min.
(§4) Intracellular fluid formulation for electrophysiological experiments: 145 mM KCl, 1 mM MgCl2, 5 mM EGTA, 10 mM HEPES, 5 mM MgATP (adjusted to pH=7.3 with KOH).
(§5) Extracellular fluid formulation for electrophysiological experiments: 140 mM NaCl, 5 mM KCl, 2 mM CaCl2), 1.5 mM MgCl2, 10 mM HEPES, 10 mM glucose (adjusted to pH=7.4 with NaOH).
(§6) To record the whole-cell currents of KCNQ2 and KCNQ4 channels, the cells were clamped at a holding potential of −120 mV, and then depolarized to −10 mV for a duration of 1500 ms, and the stimulation frequency was 0.1 Hz. The current amplitudes at the −10 mV test pulse before (IControl) and after (IDrug) the perfusion of the compounds were collected to determine the activation efficacy (IDrug/IControl).
(§7) A certain mass of the compound was weighed and dissolved in DMSO to prepare a 20 mM DMSO stock solution which was frozen and stored at −20° C. until use. […] This kind of concentration of DMSO has no effect on the detected KCNQ channel current. For example, to prepare 100 nM and 1 μM compound solutions, the gradient dilution method was as follows: 5 μL DMSO stock solution was first pipetted and added to 10 mL of extracellular fluid, and was dissolved evenly to obtain a 10 μM compound solution; then 1 mL of 10 μM compound solution was pipetted and added to 9 mL of extracellular fluid, dissolved evenly to obtain a 1 μM compound solution; then 1 mL of 1 μM compound was pipetted and added to 9 mL of extracellular fluid, dissolved evenly to obtain a 100 nM compound solution.
(§8) Data collection, analysis and processing were performed using pClamp10 (Molecular Devices, Sunnyvale, CA), GraphPad Prism 5 (GraphPad Software, San Diego, CA) and Excel (Microsoft Corporation) software. All data are expressed as mean±standard error. (Mean±SEM), significance analysis was performed using unpaired student's t-test. When P<0.05, the difference between the two groups was considered statistically significant. […]

[2] = target: T2, human KCNQ4 (Homo sapiens, UniProt P56696); assay: Whole-cell voltage clamp of KCNQ4 channel current in transfected CHO-K1 cells; type: cell-based; parameters: key to KCNQ4 (IDrug/IControl 100 nM): IDrug/IControl current amplitude ratio at -10 mV; conditions: for KCNQ4 (IDrug/IControl 100 nM): activation efficacy, 100 nM compound, -10 mV test pulse, CHO-K1 cells, mean ± SEM
T2 construct: host or cells: CHO-K1 (Chinese hamster ovary), transient transfection with Lipofectamine 2000, co-transfected with GFP
Procedure: as §1, §2, §3, §4, §5, §6, §7, §8

[3] = in vitro electrophysiological experiments

Row | SMILES | KCNQ2 (IDrug/IControl 100 nM) [1] | KCNQ4 (IDrug/IControl 100 nM) [2] | KCNQ2 agonistic activity (in words) [1, 3] | KCNQ4 agonistic activity (in words) [2, 3]
1 | C#CCN(Cc1ccc([N+](=O)[O-])cc1)c1ccc(NC(=O)OC(C)(C)C)cc1 [Compound K38] | 0.96 ± 0.01 | 1.66 ± 0.19 | – | –
2 | C#CCN(Cc1ccc(C(C)(C)C)cc1)c1ccc(NC(=O)OC(C)(C)C)cc1 [Compound K34] | 1.07 ± 0.04 | 4.40 ± 0.62 | – | –
3 | C#CCN(Cc1ccc(Br)c(F)c1)c1ccc(NC(=O)OC(C)(C)C)cc1 [Compound K43] | 0.98 ± 0.00 | 2.72 ± 0.38 | – | –
4 | C#CCN(Cc1ccc(Br)cc1)c1ccc(NC(=O)OC(C)(C)C)cc1 [Compound K36] | 1.05 ± 0.03 | 3.50 ± 0.28 | – | –
5 | C#CCN(Cc1ccc(F)c(F)c1)c1ccc(NC(=O)OC(C)(C)C)cc1 [Compound K39] | 1.10 ± 0.02 | 1.46 ± 0.02 | – | –
6 | C#CCN(Cc1ccc(I)cc1)c1ccc(NC(=O)OC(C)(C)C)cc1 [Compound K37] | 1.02 ± 0.04 | 3.28 ± 0.21 | – | –
7 | C#CCN(Cc1cccc(F)c1)c1ccc(NC(=O)OC(C)(C)C)cc1 [Compound K33] | 1.06 ± 0.03 | 3.00 ± 0.18 | – | –
8 | C#CCN(Cc1ccc(F)cc1)c1ccc(NC(=O)OC(C)(C)C)cc1 [Compound K31] | 1.07 ± 0.04 | 3.06 ± 0.61 | lost KCNQ2 agonistic activity | still had good KCNQ4 agonistic activity
9 | C#CCN(Cc1ccc(F)c(C#N)c1)c1ccc(NC(=O)OC(C)(C)C)cc1 [Compound K40] | 0.97 ± 0.02 | 1.26 ± 0.16 | – | –
10 | C#CCN(Cc1ccc(F)c([N+](=O)[O-])c1)c1ccc(NC(=O)OC(C)(C)C)cc1 [Compound K42] | 1.02 ± 0.02 | 1.35 ± 0.08 | – | –
11 | C#CCN(Cc1ccc(F)c(C(F)(F)F)c1)c1ccc(NC(=O)OC(C)(C)C)cc1 [Compound K41] | 1.03 ± 0.02 | 1.69 ± 0.19 | – | –
12 | C#CCN(Cc1ccccc1F)c1ccc(NC(=O)OC(C)(C)C)cc1 [Compound K32] | 1.05 ± 0.02 | 2.50 ± 0.28 | – | –
13 | C#CCN(Cc1ccc(Cl)cc1)c1ccc(NC(=O)OC(C)(C)C)cc1 [Compound K35] | 0.98 ± 0.03 | 3.30 ± 0.62 | – | –
